Experimental findings from BindingDB's records for doi:10.7270/Q25Q4TJ1 (Burnham Center For Chemical Genomics, 2010) are described below.

This assay concerns the target Intestinal-type alkaline phosphatase (Mus musculus, UniProt P24822). The assay is described as follows: PubChem AID 488874.

Broadly, the IC50 is the concentration at which inhibition is half-maximal.

A value given as a limit tells only on which side of the number the result lay.

Intestinal-type alkaline phosphatase, sequence (P24822 whole entry, looked up): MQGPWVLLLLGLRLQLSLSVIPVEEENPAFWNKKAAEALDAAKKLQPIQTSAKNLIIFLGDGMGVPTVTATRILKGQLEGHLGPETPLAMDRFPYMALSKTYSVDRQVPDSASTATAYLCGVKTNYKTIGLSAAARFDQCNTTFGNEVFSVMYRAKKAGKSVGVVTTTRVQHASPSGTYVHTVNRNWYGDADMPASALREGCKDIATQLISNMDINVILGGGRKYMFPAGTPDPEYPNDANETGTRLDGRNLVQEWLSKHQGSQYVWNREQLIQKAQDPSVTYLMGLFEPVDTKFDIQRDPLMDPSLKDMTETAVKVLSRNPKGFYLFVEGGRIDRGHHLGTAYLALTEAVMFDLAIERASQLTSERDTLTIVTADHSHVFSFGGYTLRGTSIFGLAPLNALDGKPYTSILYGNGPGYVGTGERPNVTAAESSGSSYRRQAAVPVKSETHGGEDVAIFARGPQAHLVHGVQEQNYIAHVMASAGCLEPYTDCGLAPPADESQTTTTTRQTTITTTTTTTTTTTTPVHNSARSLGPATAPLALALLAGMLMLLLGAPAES

`O=C(O)[C@H]1O[C@@H](Oc2c(-c3ccc(O)c(O)c3)oc3cc(O)cc(=O)c-3c2O)[C@H](O)[C@@H](O)[C@@H]1O` [quercetin glucuronide] gave an IC50 of 3.29 µM.
`O=Nc1[nH]c(=O)c(CC(=O)c2ccccc2)nc1NO` [SMR000539633] displayed a 50% inhibitory concentration (IC50) of 35.5 µM.
As for `CC(N=Nc1ccccc1[N+](=O)[O-])c1ccc([N+](=O)[O-])cc1` (stereo not given), the IC50 is more than 100 µM.
Next, `O=c1c2ccccc2nc(N=NCc2c(O)ccc3ccccc23)n1O` [SMR000145705]: 75.3 µM; `O=C(Nn1c(O)csc1=S)C(=O)Nn1c(O)csc1=S` [SMR000349781]: 3.84 µM; `Cc1cc(Br)ccc1SCC(=O)OCC(=O)C(C#N)c1nc2ccccc2[nH]1` (stereo not given) [2-[(4-bromo-2-methylphenyl)thio]acetic acid [3-cyano-3-(1,3-dihydrobenzimidazol-2-ylidene)-2-oxopropyl] ester]: more than 100 µM.
`Cc1c(C(=O)NN=Cc2ccc(O)cc2O)[nH][nH]c1=O` gave a 50% inhibitory concentration (IC50) of more than 100 µM.
Under `CCOC(=O)c1c(C)[nH]c(C(=O)N/N=C/C2C=C([N+](=O)[O-])C=CC2=O)c1C` (stereo not given) [ethyl 2,4-dimethyl-5-[[[(E)-(3-nitro-6-oxocyclohexa-2,4-dien-1-ylidene)methyl]amino]carbamoyl]-1H-pyrrole-3-carboxylate] stands more than 100 µM; under `CCOC1=CC(=Cc2c(C)[nH]oc2=O)C=C(Br)C1=O` [4-[(Z)-(3-bromo-5-ethoxy-4-oxo-1-cyclohexa-2,5-dienylidene)methyl]-3-methyl-2H-isoxazol-5-one], 33.1 µM; under `C=c1[nH]n(Cc2ccccc2)c(=O)c1=Cc1ccc(N(C)C)cc1` [(4Z)-4-[[4-(dimethylamino)phenyl]methylidene]-5-methyl-2-(phenylmethyl)-3-pyrazolone], 35.1 µM.
